Results published in patent US20220175955A1, “PEPTIDE DISPLAY TO ANTIGEN PRESENTING CELLS USING LIPID VEHICLE” (Torque Therapeutics Inc., priority 2018, published 2022).

Test system: CD11c+ BMDCs
Test: Antigen presentation (MHC I:SIINFEKL) on antigen-pulsed BMDCs in vitro, flow cytometry
Format: cell-based, mouse
Settings: 1 μM epitope; later time points (48 h to 96 h); FIG. 1
Procedure: Bone marrow derived dendritic cells (BMDCs) were differentiated in vitro before antigen pulsing. Bone marrow cells were isolated from tibia and femur from C57bl/6 JrJ mice obtained from Janvier SAS. After sacrificing the mice by cervical dislocation, bones were isolated and kept in tissue storage solution (MACS Miltenyi). After a 2 min sterilization in 70% ethanol, bones were cut at each end with a scalpel end flushed with medium by using a 29 g insulin syringe. Following isolation, bone marrow cells were cultured in complete RPMI 1640 medium supplemented with 20 ng/ml mouse recombinant GM-CSF. On day 3, cells were supplemented with fresh medium containing GM-CSF. On day 6, immature BMDCs were harvested, re-plated and incubated with 1 μM liposomal (MK062 or MK062 TMX) or soluble SIINFEKL epitope. BMDCs were harvested after 24 or 48 hours for flow cytometry analysis. […] After blocking for 5 min on ice, cells were stained with antibodies against the dendritic cell marker CD11c and assessed for antigen presentation by an antibody recognizing SIINFEKL presented on MHC I molecules (H-2kb). […]
[…] After blocking for 5 min on ice, cells were stained with antibodies against the dendritic cell marker CD11c and assessed for antigen presentation by an antibody recognizing SIINFEKL presented on MHC I molecules (H-2kb). […]

With SIINFEKL (Synthetic antigen) the “Antigen presentation (MFI of MHC:SIINFEKL in CD11c+ BMDCs)” value was “decreased markedly”.
